Reference: US11414385B2, “Compounds and methods for treating, detecting, and identifying compounds to treat apicomplexan parasitic diseases” (The University of Chicago, priority 2015, dated 2022)
Like-named read-outs stand apart in the source and are kept apart here.

Columns and labels:
[1] = system: P. falciparum strains D6, TM91-C235, W2, C2B; assay: Malaria SYBR Green I-Based Fluorescence (MSF) Assay; type: cell-based, Plasmodium falciparum; conditions: Plasmodium falciparum
Experimental: Testing of P. falciparum: D6 is a drug sensitive strain from Sierra Leone, C235 is a multi-drug resistant strain from Thailand, W2 is a chloroquine resistant strain from Thailand, and C2B has resistance to a variety of drugs including atovaquone.
D6 is a drug sensitive strain from Sierra Leone, C235 is a multi-drug resistant strain from Thailand, W2 is a chloroquine resistant strain from Thailand, and C2B has resistance to a variety of drugs including atovaquone. These assays were performed as described.
(§1) Compound activity against P. falciparum, a causative agent of malaria, was tested using the Malaria SYBR Green I—Based Fluorescence (MSF) Assay. This; microtiter plate drug sensitivity assay uses the presence of malarial DNA as a measure of parasitic proliferation in the presence of antimalarial drugs or experimental compounds based on modifications of previously described methods by Plouffe et al (20) and Johnson et al. As the intercalation of SYBR Green I dye and its resulting fluorescence is relative to parasite growth, a test compound that inhibits the growth of the parasite will result in a lower fluorescence.
Selected compounds were examined for activity against four strains of P. falciparum: D6 (CDC/Sierra Leone), a drug-sensitive strain readily killed by chloroquine, TM91-C235, a multi-drug resistant strain resistant to chloroquine, W2, a chloroquine resistant strain from Thailand, and C2B has resistance to a variety of drugs including atovaquone.
D6 is a drug sensitive strain from Sierra Leone, C235 is a multi-drug resistant strain from Thailand, W2 is a chloroquine resistant strain from Thailand, and C2B has resistance to a variety of drugs including atovaquone. These assays were performed using standard protocols.
as §1, with “known in the art.” for “by Plouffe et al (20) and Johnson et al.”, “fluorescence. Selected compounds were examined for activity against four strains of P. falciparum: D6 (CDC/Sierra Leone), a drugsensitive strain readily killed by chloroquine, TM91-C235, a multi-drug resistant strain resistant to chloroquine, W2, a chloroquine resistant strain from Thailand, and C2B has resistance to a variety of drugs including atovaquone.” for “fluorescence.”

[2] = system: T. gondii tachyzoites (RH-YFP strain); assay: In vitro challenge assay for Toxoplasma tachyzoites (RH-YFP in HFF, fluorescence); type: cell-based, Toxoplasma gondii; conditions: Toxoplasma gondii; RH-YFP; read-out: Tachy IC50
Experimental: Human foreskin fibroblasts (HFF) were cultured on a flat, clear-bottomed, black 96-well plate to 90% to 100% confluence. IMDM (1×, [+] glutamine, [+] 25 mM HEPES, [+] Phenol red, 10% FBS [gibco, Denmark]) was removed from each well and replaced with IMDM-C (1×, [+] glutamine, [+] 25 mM HEPES, [−] Phenol red, 10% FBS)[Gibco, Denmark]). Type I RH parasites expressing Yellow Fluorescent Protein (RH-YFP) were lysed from host cells by double passage through a 27-gauge needle. Parasites were counted and diluted to 32,000/mL in IMDM-C. Fibroblast cultures were infected with 3200 tachyzoites of the Type I RH-YFP strain and returned to incubator at 37° C. for 1-2 hours to allow for infection. Diluted solutions of the compounds were made using IMDM-C, and 20 μl were added to each designated well, with triplicates for each condition. Controls included pyrimethamine/sulfadiazine (current standard of treatment), DMSO only, fibroblast only, and an untreated YFP gradient with 2 fold dilutions of the parasite. Cells were incubated at 37° C. for 72 hours. The plates were read using a fluorimeter (Synergy H4 Hybrid Reader, BioTek) To ascertain the amount of yellow fluorescent protein, in relative fluorescence units (RFU), as a measure of parasite burden after treatment. Compounds were not considered effective or pursued for further analysis if there were no signs of inhibition at 1 μM. Data was collected using Gen5 software and analyzed with Excel.
Protocol adapted from Fomovska, et. al. (18,19). Human foreskin fibroblasts (HFF) were cultured on a flat, clear-bottomed, black 96-well plate to 90% to 100% confluence. IMDM (1×, [+] glutamine, [+] 25 mM HEPES, [+] Phenol red, 10% FBS [gibco, Denmark]) was removed from each well and replaced with IMDM-C (1×, [+] glutamine, [+] 25 mM HEPES, [−] Phenol red, 10% FBS)[gibco, Denmark]). Type I RH parasites expressing Yellow Fluorescent Protein (RH-YFP) were lysed from host cells by double passage through a 27-gauge needle. Parasites were counted and diluted to 32,000/mL in IMDM-C. Fibroblast cultures were infected with 3200 tachyzoites of the Type I RH strain expressing Yellow Fluorescent Protein (RH-YFP) and returned to incubator at 37° C. for 1-2 hours to allow for infection (15). Various concentrations of the compounds were made using IMDM-C, and 20 μl were added to each designated well, with triplicates for each condition. Controls included pyrimethamine/sulfadiazine (current standard of treatment), 0.1% DMSO only, fibroblast only, and an untreated YFP gradient with 2 fold dilutions of the parasite. Cells were incubated at 37° C. for 72 hours. Plates were read using a fluorimeter (Synergy H4 Hybrid Reader, BioTek) to ascertain the amount of yellow fluorescent protein, in relative fluorescence units (RFU), as a measure of parasite burden after treatment. Data was collected using Gen5 software. IC50 was calculated by graphical analysis in Excel.
An initial screening assay of 10 μM, 1 μM, 100 nM, and 10 nM was performed. Compounds were not considered effective or pursued for further analysis if there were no signs of inhibition of tachyzoites at 1 μM. If compounds did appear to be effective at 1 μM, another experiment was conducted to assess effect at 1 μM, 500 nM, 250 nM, 125 nM, 62.5 nM, and 31.25 nM.
Protocol adapted from Fomovska, et. al. (Fomovska A, Huang Q, El Bissati K, Mui E J, Witola W H, Cheng G, et al. Novel N-Benzoyl-2-Hydroxybenzamide Disrupts Unique Parasite Secretory Pathway. Antimicrob Agents Chemother [Internet]. 2012 May [cited 2015 Jul. 8]; 56(5):2666-82; Fomovska A, Wood R D, Mui E, Dubey J P, Ferreira L R, Hickman M R, et al. Salicylanilide inhibitors of Toxoplasma gondii. J Med Chem. 2012 Oct. 11; 55(19):8375-91.). Human foreskin fibroblasts (HFF) were cultured on a flat, clear-bottomed, black 96-well plate to 90% to 100% confluence. […]

[3] = D6 strain, read-out: Pf D6 IC50
[4] = C2B strain, read-out: SYBR Green C2B IC50
[5] = D6 strain, read-out: SYBR Green D6 IC50
[6] = TM91C235 strain, read-out: SYBR Green C235 IC50
[7] = W2 strain, read-out: SYBR Green W2 IC50

Cc1cc2[nH]c(C)c(-c3ccc(Oc4ccc(OC(F)(F)F)cc4)cc3)c(=O)n2n1 [JAG006, 2,5-dimethyl-6-(4 (4-(trifluoromethoxy)phenoxy)phenyl) pyrazolo[1,5-a]pyrimidin-7(4H)-one] was tested. Which IC50 [1, 3] did it give?
Its IC50 is 0.29 µM.

What about the IC50 [2] of the same compound?
The IC50 was greater than 1 µM.

What does the source list for Cc1[nH]c2ncnn2c(=O)c1-c1ccc(Oc2ccc(OC(F)(F)F)cc2)cc1 [MJM136, 5-methyl-6-(4-(4-(trifluoromethoxy)phenoxy)phenyl)-[1,2,4]triazolo[1,5-a]pyrimidin-7(4H)-one]?
IC50 [1, 4]: 0.38 µM; IC50 [1, 3]: 0.2 µM; IC50 [1, 5]: 0.2 µM; IC50 [1, 6]: 0.58 µM; IC50 [1, 7]: 0.55 µM; IC50 [2]: 1 to 10 µM

CSc1nc2[nH]c(C)c(-c3ccc(Oc4ccc(OC(F)(F)F)cc4)cc3)c(=O)n2n1 [JAG013, 5-methyl-2-(methylthio)-6-(4-(4-(trifluoromethoxy)phenoxy)phenyl)-[1,2,4]triazolo[1,5-a]pyrimidin-7(4H)-one] was tested. Which IC50 [1, 4] did it give?
Its IC50 is 1.39 µM.

And the IC50 [1, 3]?
Its IC50 is 1.31 µM.

What about the IC50 [1, 5] of the same compound?
Its IC50 is 1.31 µM.

And the IC50 [1, 6]?
The IC50 was 2.6 µM.

What about the IC50 [1, 7] of the same compound?
Its IC50 is 2.35 µM.

And the IC50 [2]?
Its IC50 is greater than 1 µM.

Which IC50 [1, 4] does the source give for Cc1[nH]c2cc(-c3ccccc3)nn2c(=O)c1-c1ccc(Oc2ccc(OC(F)(F)F)cc2)cc1 [JAG015, 5-methyl-2-phenyl-6-(4-(4-(trifluoromethoxy)phenoxy)phenyl) pyrazolo[1,5-a]pyrimidin-7(4H)-one] here?
The IC50 was greater than 20 µM.

And the IC50 [1, 3]?
The IC50 was greater than 20 µM.

What about the IC50 [1, 5] of the same compound?
Its IC50 is greater than 20 µM.

And the IC50 [1, 6]?
The IC50 was greater than 20 µM.

What about the IC50 [1, 7] of the same compound?
The IC50 was greater than 20 µM.

What about the IC50 [2] of the same compound?
Its IC50 is greater than 1 µM.

Cc1[nH]c2c(C#N)cnn2c(=O)c1-c1ccc(Oc2ccc(OC(F)(F)F)cc2)cc1 [JAG014, 5-methyl-7-oxo-6-(4-(4-(trifluoromethoxy)phenoxy)phenyl)-4,7-dihydropyrazolo[1,5-a]pyrimidine-3-carbonitrile] was tested. Which IC50 [1, 4] did it give?
Its IC50 is 0.92 µM.

What about the IC50 [1, 3] of the same compound?
The IC50 was 0.71 µM.

What about the IC50 [1, 5] of the same compound?
Its IC50 is 0.71 µM.

What about the IC50 [1, 6] of the same compound?
The IC50 was 1.35 µM.

What about the IC50 [1, 7] of the same compound?
The IC50 was 1.27 µM.

What about the IC50 [2] of the same compound?
Its IC50 is greater than 1 µM.

Cc1[nH]c2c(c(=O)c1-c1ccc(Oc3ccc(Cl)cc3)cc1)CCCC2 [JAG50, 3-(4-(4-chlorophenoxy)phenyl)-2-methyl-5,6,7,8-tetrahydroquinolin-4(1H)-one] was tested. Which IC50 [1, 3] did it give?
Its IC50 is 0.0466 µM.

And the IC50 [2]?
Its IC50 is 0.055 µM.

How did the IC50 [2] turn out when Cc1[nH]c2c(c(=O)c1-c1ccc(Oc3cccc(F)c3)cc1)CCCC2 [JAG069, 3-(4-(3-Fluorophenoxy)phenyl)-2-methyl-5,6,7,8-tetrahydroquinolin-4(1H)-one] was run?
Its IC50 is 0.02 µM.

With O=c1[nH]c2c(c(=O)n1-c1ccc(Oc3ccccc3)cc1)CCCC2 [JAG095, 3-(4-Phenonxyphenyl)-1,2,3,4,5,6,7,8-octahydroquinazoline-2,4,dione] as the compound, how does the IC50 [2] read?
The IC50 was greater than 10 µM.

How did the IC50 [2] turn out when Cc1c(-c2ccc(Oc3ccc(OC(F)(F)F)cc3)cc2)c(=O)c2c(n1C)CCCC2 [JAG023, 1,2-dimethyl-3-(4-(4-(trifluoromethoxy)phenoxy)phenyl)-5,6,7,8-tetrahydroquinolin-4(1H)-one] was run?
The IC50 was 1 µM.
